One assay deals with b-Raf (Homo sapiens (Human), UniProt P15056). In words: Enzyme-inhibiting activity test of kinases other than Trk (selectivity experiment): b-Raf. It is filed as biochemical. The settings on record: concentration of 3 μM; read-out: Inhibition rate (%) b-Raf. The procedure: (§1) A test substance (the present compound) was dissolved in dimethylsulfoxide to prepare a 100-fold concentration of the test concentration, 3 μM. The solution was further diluted to 25-fold with an assay buffer (20 mM HEPES, 0.01% Triton X-100, 2 mM DTT, pH 7.5) to obtain a test substance solution. In a similar manner a positive control substance solution was prepared with a positive control substance.
(§2) A 4-times concentration solution (5 μL) of the test substance prepared with the assay buffer, 5 μL of a 4-times concentration solution of substrate/ATP/metal (Mg) and 10 μL of a 2-times concentration solution of kinase were mixed in a well of a polypropylene 384-well plate and allowed to react at room temperature for 1 hour. The reaction was terminated by adding 60 μL of a Termination Buffer (QuickScout Screening Assist MSA; Carna Biosciences). The substrate peptide and the phosphorylated peptide in the reaction solution were separated and quantified. The kinase reaction was assessed from the product ratio (P/(P+S)) calculated from the height (S) of the peak of the substrate peptide and the height (P) of the peak of the phosphorylated peptide. Other kinases used in the kinase selectivity experiments were, for example, b-Raf and KDR. The following Table 3 indicates substrates, substrate concentrations, ATP concentrations and positive control substances used in respective kinase enzyme inhibition activity tests.

Another assay has as its target KDR (Homo sapiens (Human), UniProt P35968). In words: Enzyme-inhibiting activity test of kinases other than Trk (selectivity experiment): KDR. It is filed as biochemical. The settings on record: concentration of 3 μM; read-out: Inhibition rate (%) KDR. The procedure:
as §1, §2

Assay [1] relates to sodium monoiodoacetate-induced model rats. As to the kind of experiment: Analgesic effect on sodium monoiodoacetate-induced model rats. It is filed as in vivo, rat. The settings on record: MIA-induced model rats.
[2] abbreviates: test substance orally twice a day day 14 to 23, day 24 3 hours before measurement, right hind limb weight load ratio, experiment with morphine as positive control.
Where [3] appears, read: test substance orally twice a day day 14 to 23, day 24 3 hours before measurement, right hind limb weight load ratio, experiment with tramadol as positive control.

Broadly, the inhibition is the relative decrease from the control value, in per cent.

KDR, sequence (P35968 20-1356, species assumed): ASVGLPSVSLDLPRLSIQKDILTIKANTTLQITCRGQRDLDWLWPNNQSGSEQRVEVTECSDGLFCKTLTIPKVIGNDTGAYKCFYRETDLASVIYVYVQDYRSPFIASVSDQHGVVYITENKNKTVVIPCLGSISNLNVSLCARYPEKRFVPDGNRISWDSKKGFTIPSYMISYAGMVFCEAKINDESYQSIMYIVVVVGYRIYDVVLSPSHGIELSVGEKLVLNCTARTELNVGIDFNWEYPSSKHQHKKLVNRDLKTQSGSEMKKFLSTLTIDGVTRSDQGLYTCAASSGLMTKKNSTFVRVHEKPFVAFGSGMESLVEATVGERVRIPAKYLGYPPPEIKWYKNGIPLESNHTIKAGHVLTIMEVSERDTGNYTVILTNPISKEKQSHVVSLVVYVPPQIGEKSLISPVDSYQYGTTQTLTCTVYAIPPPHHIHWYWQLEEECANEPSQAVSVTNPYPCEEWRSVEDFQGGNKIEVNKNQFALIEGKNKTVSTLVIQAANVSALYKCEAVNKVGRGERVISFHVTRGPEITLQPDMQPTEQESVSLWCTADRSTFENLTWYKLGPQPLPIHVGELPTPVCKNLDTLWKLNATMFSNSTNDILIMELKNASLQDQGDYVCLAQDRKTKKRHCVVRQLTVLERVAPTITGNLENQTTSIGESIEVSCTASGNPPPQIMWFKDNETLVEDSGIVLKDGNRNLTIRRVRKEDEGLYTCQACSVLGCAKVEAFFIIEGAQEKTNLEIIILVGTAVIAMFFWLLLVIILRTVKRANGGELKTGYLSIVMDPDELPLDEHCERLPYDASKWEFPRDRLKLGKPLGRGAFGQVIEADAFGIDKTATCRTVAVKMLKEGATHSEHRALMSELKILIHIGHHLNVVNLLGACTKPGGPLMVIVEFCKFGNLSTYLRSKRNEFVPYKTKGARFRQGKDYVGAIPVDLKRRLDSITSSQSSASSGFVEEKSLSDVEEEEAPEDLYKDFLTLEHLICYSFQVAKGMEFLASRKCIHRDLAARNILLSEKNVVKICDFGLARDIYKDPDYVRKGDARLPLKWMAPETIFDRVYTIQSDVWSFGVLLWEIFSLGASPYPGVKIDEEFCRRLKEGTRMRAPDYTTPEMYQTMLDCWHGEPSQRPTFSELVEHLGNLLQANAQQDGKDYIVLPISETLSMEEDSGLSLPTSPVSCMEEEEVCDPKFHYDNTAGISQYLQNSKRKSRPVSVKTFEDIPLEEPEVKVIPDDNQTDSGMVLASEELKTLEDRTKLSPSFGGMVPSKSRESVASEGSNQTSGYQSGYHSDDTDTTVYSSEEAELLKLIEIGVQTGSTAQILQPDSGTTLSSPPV
b-Raf, sequence (P15056 whole entry, species assumed): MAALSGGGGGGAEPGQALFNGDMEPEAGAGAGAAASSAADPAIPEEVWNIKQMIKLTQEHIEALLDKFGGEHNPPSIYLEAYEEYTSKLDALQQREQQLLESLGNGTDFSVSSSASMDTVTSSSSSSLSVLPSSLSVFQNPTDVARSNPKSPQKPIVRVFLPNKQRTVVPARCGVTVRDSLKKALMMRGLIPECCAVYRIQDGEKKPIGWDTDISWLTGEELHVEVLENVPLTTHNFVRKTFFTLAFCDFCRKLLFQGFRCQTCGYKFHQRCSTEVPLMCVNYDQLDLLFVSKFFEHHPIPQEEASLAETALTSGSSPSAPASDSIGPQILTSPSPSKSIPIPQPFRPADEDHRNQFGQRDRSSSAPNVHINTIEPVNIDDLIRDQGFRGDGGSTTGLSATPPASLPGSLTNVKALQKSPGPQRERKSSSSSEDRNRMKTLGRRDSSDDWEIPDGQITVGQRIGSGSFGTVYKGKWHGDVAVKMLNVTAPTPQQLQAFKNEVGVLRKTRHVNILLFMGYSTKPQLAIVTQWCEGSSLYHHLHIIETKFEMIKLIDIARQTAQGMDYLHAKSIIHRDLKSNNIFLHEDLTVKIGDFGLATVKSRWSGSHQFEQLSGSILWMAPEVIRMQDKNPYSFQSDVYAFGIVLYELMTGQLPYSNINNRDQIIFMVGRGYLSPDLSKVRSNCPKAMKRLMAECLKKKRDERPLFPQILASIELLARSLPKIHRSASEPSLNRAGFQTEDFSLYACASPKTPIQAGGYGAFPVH

As to `CN(C)c1ccn2ncc(-c3ccc(Oc4ncc(NC(=O)Nc5cc(C(F)(F)F)ccc5-c5ccccc5)cn4)cc3)c2n1` [Example 21-70, 1-(2-{4-[5-(dimethylamino)pyrazolo[1,5-a]pyrimidin-3-yl]phenoxyl}-5-pyrimidinyl)-3-[4-(trifluoromethyl)-2-biphenylyl]urea], the inhibition at 3 µM came to 19% at b-Raf and 0% at KDR. Moreover, the “Percent improvement (%)” value in assay [1] (setting [2]) was 61%.
On to `CCNc1ccn2ncc(-c3ccc(Oc4ncc(NC(=O)Nc5cc(C(F)(F)F)ccc5-c5cccc(C)c5)cn4)cc3)c2n1` [Example 21-67, 1-(2-{4-[5-(ethylamino)pyrazolo[1,5-a]pyrimidin-3-yl]phenoxyl}-5-pyrimidinyl)-3-[3′-methyl-4-(trifluoromethyl)-2-biphenylyl]urea], for which the inhibition at 3 µM at b-Raf is 19%; on KDR, 0%.
With `Nc1ncc(Cl)cc1-c1ccc(Oc2ncc(NC(=O)Nc3ccc(C(F)(F)F)cc3-n3cccn3)cn2)cc1` [Example 15-4, 1-(2-(1H-pyrazol-1-yl)-4-(trifluoromethyl)phenyl)-3-(2-(4-(2-amino-5-chloropyridin-3-yl)phenoxy)pyrimidin-5-yl)urea], the inhibition at 3 µM on b-Raf and at KDR was 0% each time.
Consider `O=C(Nc1cnc(Oc2ccc(-c3cnn4ccc(N5CCC5)nc34)cc2)nc1)Nc1cc(C(F)(F)F)ccc1-c1cccnc1` [Example 21-1, 1-(2-(4-(5-(azetidin-1-yl)pyrazolo[1,5-a]pyrimidin-3-yl)phenoxy)pyrimidin-5-yl)-3-(2-(pyridin-3-yl)-5-(trifluoromethyl)phenyl)urea], for which the inhibition at 3 µM on b-Raf is 36%; at KDR, 1.5%.
For `CN(C)c1ccn2ncc(-c3ccc(Oc4ncc(NC(=O)Nc5cc(C(F)(F)F)ccc5-c5cccnc5)cn4)cc3)c2n1` [Example 21-37], the inhibition at 3 µM on b-Raf was found to be 50%; at KDR, 16%. In addition, the “Percent improvement (%)” value in assay [1] (setting [2]) stood at 67%.
As to `Cc1ccccc1-c1ccc(C(F)(F)F)cc1NC(=O)Nc1cnc(Oc2ccc(-c3cnn4ccc(N(C)C)nc34)cc2)nc1` [Example 21-75, 1-(2-{4-[5-(dimethylamino)pyrazolo[1,5-a]pyrimidin-3-yl]phenoxyl}-5-pyrimidinyl)-3-[2′-methyl-4-(trifluoromethyl)-2-biphenylyl]urea], the inhibition at 3 µM at b-Raf amounted to 41%; at KDR, 0%.
Turning to `Nc1ncc(F)cc1-c1ccc(Oc2ncc(NC(=O)Nc3cc(C(F)(F)F)ccc3-c3ccccc3)cn2)cc1` [Example 15-58, 1-{2-[4-(2-amino-5-fluoro-3-pyridinyl)phenoxy]-5-pyrimidinyl}-3-[4-(trifluoromethyl)-2-biphenylyl]urea], the inhibition at 3 µM was found to be 30% on b-Raf and 0% on KDR.
In the case of `CN(C)S(=O)(=O)c1ccc(C(F)(F)F)cc1NC(=O)Nc1cnc(Oc2ccc(-c3cc(C(F)(F)F)cnc3N)cc2)nc1` [Example 15-105, 2-{[(2-{4-[2-amino-5-(trifluoromethyl)-3-pyridinyl]phenoxyl}-5-pyrimidinyl)carbamoyl]amino}-N,N-dimethyl-4-(trifluoromethyl)benzenesulfonamide], the values for the inhibition at 3 µM at b-Raf and on KDR were 26% and 0%, respectively.
In the same order, the values of `CS(=O)(=O)c1ccc(C(F)(F)F)cc1NC(=O)Nc1cnc(Oc2ccc(-c3cc(F)cnc3N)cc2)nc1` [Example 15-96, 1-{2-[4-(2-amino-5-fluoro-3-pyridinyl)phenoxy]-5-pyrimidinyl}-3-[2-(methylsulfonyl)-5-(trifluoromethyl)phenyl]urea] are 22% and 2%.
`COc1ccn2ncc(-c3ccc(Oc4ncc(NC(=O)Nc5cc(C(F)(F)F)ccc5-c5cccnc5)cn4)cc3)c2n1` [Example 21-9, 1-(2-(4-(5-methoxypyrazolo[1,5-a]pyrimidin-3-yl)phenoxy)pyrimidin-5-yl)-3-(2-(pyridin-3-yl)-5-(trifluoromethyl)phenyl)urea]: in assay [1] (setting [3]), the “Percent improvement (%)” value worked out at 64%.
For `Nc1ncc(Cl)cc1-c1ccc(Oc2ncc(NC(=O)Nc3cc(C(F)(F)F)ccc3-n3ccc(C(F)(F)F)n3)cn2)cc1` [Example 8-2, 1-(2-(4-(2-amino-5-chloropyridin-3-yl)phenoxy)pyrimidin-5-yl)-3-(5-(trifluoromethyl)-2-(3-(trifluoromethyl)-1H-pyrazol-1-yl)phenyl)urea], the inhibition at 3 µM was found to be 21% at b-Raf and 0% on KDR.
Turning to `Cn1nccc1-c1ccc(C(F)(F)F)cc1NC(=O)Nc1cnc(Oc2ccc(-c3cnn4ccc(N5CCC5)nc34)cc2)nc1` [Example 21-2, 1-(2-(4-(5-(azetidin-1-yl)pyrazolo[1,5-a]pyrimidin-3-yl)phenoxy)pyrimidin-5-yl)-3-(2-(1-methyl-1H-pyrazol-5-yl)-5-(trifluoromethyl)phenyl)urea], the inhibition at 3 µM on b-Raf turned out to be 30%; at KDR, 1%.
With `Cn1nccc1-c1ccc(C(F)(F)F)cc1NC(=O)Nc1cnc(Oc2ccc(-c3cc(Cl)cnc3N)cc2)nc1` [Example 13-1, 1-(2-(4-(2-amino-5-chloropyridin-3-yl)phenoxy)pyrimidin-5-yl)-3-(2-(1-methyl-1H-pyrazol-5-yl)-5-(trifluoromethyl)phenyl)urea], the inhibition at 3 µM on b-Raf amounted to 33%; at KDR, 7.5%.
In the case of `Nc1ncc(Cl)cc1-c1ccc(Oc2ncc(NC(=O)Nc3cc(Cl)ccc3-n3ccc(C(F)(F)F)n3)cn2)cc1` [Example 15-71, 1-{2-[4-(2-amino-5-chloro-3-pyridinyl)phenoxy]-5-pyrimidinyl}-3-{5-chloro-2-[3-(trifluoromethyl)-1H-pyrazol-1-yl]phenyl}urea], the values for the inhibition at 3 µM at b-Raf and on KDR were 40% and 0%, respectively.
As for `O=C(Nc1cnc(Oc2ccc(-c3cnn4cccnc34)cc2)nc1)Nc1cc(C(F)(F)F)ccc1-c1cccnc1` [Example 21-13, 1-(2-(4-(pyrazolo[1,5-a]pyrimidin-3-yl)phenoxy)pyrimidin-5-yl)-3-(2-(pyridin-3-yl)-5-(trifluoromethyl)phenyl)urea], the “Percent improvement (%)” value in assay [1] (setting [3]) is listed as 66%.
Consider `COc1cccc(C2(O)CCCCC2CN(C)C)c1` (centres unmarked) [Tramadol, tramadol, reference compound], for which, in assay [1] (10 mg/kg subcutaneously 1 hour before measurement on day 24), the “Percent improvement (%)” value is 43%.
In the case of `CCOc1ccc2ncc(-c3ccc(Oc4ncc(NC(=O)Nc5cc(C(F)(F)F)ccc5-c5cccnc5)cn4)cc3)n2n1` [Example 22-34, 1-{2-[4-(6-ethoxyimidazo[1,2-b]pyridazin-3-yl)phenoxy]-5-pyrimidinyl}-3-[2-(3-pyridinyl)-5-(trifluoromethyl)phenyl]urea], the inhibition at 3 µM at b-Raf turned out to be 56%; at KDR it was 19%.
The matching figures for `Cc1ccn2ncc(-c3ccc(Oc4ncc(NC(=O)Nc5cc(C(F)(F)F)ccc5-c5cccnc5)cn4)cc3)c2n1` [Example 21-65, 1-{2-[4-(5-methylpyrazolo[1,5-a]pyrimidin-3-yl)phenoxy]-5-pyrimidinyl}-3-[2-(3-pyridinyl)-5-(trifluoromethyl)phenyl]urea]: 58% and 19%.

The record behind these values is patent US10300060B2, “Trk-inhibiting compound” (ONO PHARMACEUTICAL CO., LTD., priority 2013, dated 2019).
